In ChEMBL document CHEMBL5365455, “Design, synthesis and anticancer activity of N-aryl indolylsulfoximines: Identification of potent and selective anticancer agents” (Bioorg Med Chem, 2023) one finds IC50, Activity and inhibition data, which are given here for 14 compounds.

The IC50 is the concentration that gives 50% inhibition.

Activity calls are given as the source filed them. The calls are words filed in the database; no cut-off is given here.

One data set concerns CWR22R. Nature of the data set: Anticancer activity against human 22Rv1 cells assessed as cell growth inhibition measured after 48 hrs by MTT assay. The following applies: 22Rv1, 48 h. The data set is classed as functional, cell-based.
Data set [1] has as its system LNCaP C4-2. The data set is described as follows: Anticancer activity against human LNCaP C4-2 cells assessed as cell growth inhibition measured after 48 hrs by MTT assay. The data set is classed as functional, cell-based. The following applies: LNCaP C4-2, 48 h. On the technique in general: Tetrazolium assays rely on reduction of a dye to a coloured formazan, in cell work by metabolically active cells.

The nature of data set [2]: (§1) Cytotoxicity against HEK293 cells assessed as cell growth inhibition measured after 48 hrs by MTT assay. The data set is classed as toxicity, cell-based, Homo sapiens. The following applies: human, HEK293 cells.
The test system of the next data set is MCF7. Nature of the data set: Anticancer activity against human MCF7 cells assessed as cell growth inhibition measured after 48 hrs by MTT assay. The following applies: MCF7, 48 h. The data set is classed as functional, cell-based.
Another data set concerns HEK293. The description is as §1. The following applies: hek293. The class given is toxicity, cell-based, Homo sapiens.
A further data set concerns PC-3. The data set is described as follows: Anticancer activity against human PC-3 cells assessed as cell growth inhibition measured after 48 hrs by MTT assay. The class given is functional, cell-based. The following applies: PC-3, 48 h.
Data set [3] deals with LNCaP C4-2. Nature of the data set: Induction of apoptosis in human LNCaP C4-2 cells assessed as increase in p53 level at 10 uM measured after 48 hrs by Western blot analysis. The data set is classed as functional, cell-based.
For data set [4], the target named is T1, Tubulin (Homo sapiens) (UniProt P68371+Q9H4B7+P0DPH7+P68366+Q13509+Q71U36+P04350+Q3ZCM7+P07437+P68363+Q9BQE3+Q6PEY2+Q13885+Q9BVA1+Q9BUF5). The data set is described as follows: Induction of tubulin depolymerization in human LNCaP C4-2 cells assessed as shrinkage of tubulin at 10 uM measured after 48 hrs by fluorescence microscopic analysis. The class given is cell-based.

Data set [5] deals with LNCaP C4-2. The data set is described as follows: Induction of ROS accumulation in human LNCaP C4-2 cells at 10 uM measured after 48 hrs by H2DCFDA dye based inverted fluorescent microscopic analysis. The data set is classed as functional, cell-based.
For data set [6], the system named is LNCaP C4-2. The data set is described as follows: Induction of cell death in human LNCaP C4-2 cells assessed as red fluorescence at 10 uM incubated for 48 hrs by ethidium bromide/acridine orange staining based fluorescent microscopic analysis. The data set is classed as functional.
Data set [7] deals with LNCaP C4-2. Nature of the data set: Inhibition of colony formation in human LNCaP C4-2 cells assessed as decrease in colony number at 10 uM measured after 10 days by crystal violet staining based assay. The data set is classed as functional, cell-based. The following applies: time 10.0 day.
For data set [8], the target named is T1, Tubulin (Homo sapiens). The data set is described as follows: Induction of tubulin depolymerization in human 22Rv1 cells assessed as decrease in polymerized tubulin level at 20 uM measured after 24 hrs by Bradford assay relative to control. The class given is cell-based. Further details: scale not given: the % may be the effect or the level left.
Data set [9] concerns LNCaP C4-2. The data set is described as follows: Induction of apoptosis in human LNCaP C4-2 cells assessed as increase in c-Jun level at 10 uM measured after 48 hrs by Western blot analysis. The class given is functional, cell-based. (In western blotting, separated proteins are transferred to a membrane and probed.)
Data set [10] deals with Cell membrane. The data set is described as follows: Induction of mitochondrial membrane depolarization in human LNCaP C4-2 cells at 10 uM measured after 48 hrs by JC-1 staining based fluorescence microscopic analysis. The class given is subcellular.
In data set [11] the target is T1, Tubulin (Homo sapiens). The data set is described as follows: Induction of tubulin depolymerization in human LNCaP C4-2 cells assessed as tubulin condensation towards nucleus at 10 uM measured after 48 hrs by fluorescence microscopic analysis. The data set is classed as cell-based.
In data set [12] the test system is LNCaP C4-2. The data set is described as follows: Induction of cytokinesis defect in human LNCaP C4-2 cells at 10 uM measured after 48 hrs by DAPI staining based fluorescence imaging analysis. The data set is classed as functional, cell-based.
The test system of data set [13] is LNCaP C4-2. The data set is described as follows: Inhibition of cell migration in human LNCaP C4-2 cells assessed as reduction in cell motility at 10 uM incubated for 12 to 24 hrs by inverted microscopy based scratch wound healing assay. The class given is functional. As to conditions: time 12-24 hrs.
The test system of data set [14] is Cell membrane. Nature of the data set: Induction of mitochondrial membrane depolarization in human LNCaP C4-2 cells at 1 ug/ml measured after 48 hrs by JC-1 staining based fluorescence microscopic analysis. The class given is subcellular. As to conditions: dose 1.0 µg/ml.

Regarding `CS(=O)(=Nc1cccc(C(F)(F)F)c1)c1c[nH]c2ccccc12` (configuration not stated), the IC50 in the data set with CWR22R is above 40 µM; with LNCaP C4-2 [1] it was 2.18 µM; in the data set on MCF7 it was 2 µM. Besides, the IC50 at 48 h in data set [2] was found to be 40 µM.
As for `CS(=O)(=Nc1ccc(F)cc1)c1c[nH]c2ccccc12` (configuration not stated), the half-maximal inhibitory concentration (IC50) with CWR22R is 40 µM; in the data set with LNCaP C4-2 [1], 3.7 µM; in the data set on HEK293, above 40 µM; with PC-3, above 40 µM; in the data set on MCF7 it was 40 µM.
As for `COc1cc(N=S(C)(=O)c2c[nH]c3ccccc23)cc(OC)c1OC` (configuration not stated), the IC50 in the data set on CWR22R was above 40 µM; with LNCaP C4-2 [1], 10 µM; in the data set with HEK293, above 40 µM; in the data set with PC-3, 21.7 µM; with MCF7 it was 40 µM.
On to `Cc1ccc(N=S(C)(=O)c2c[nH]c3ccccc23)cc1` (configuration not stated), for which the IC50 in the data set with CWR22R is above 40 µM; in the data set with LNCaP C4-2 [1] it was 2.3 µM; in the data set with PC-3, above 40 µM; in the data set on MCF7, 1.6 µM. The IC50 at 48 h in data set [2] is 40 µM.
In the case of `COc1ccc(N=S(C)(=O)c2c[nH]c3cc(F)ccc23)cc1` (configuration not stated), the result in the data set on LNCaP C4-2 [3], at Tubulin (Homo sapiens) [4], in the data set with LNCaP C4-2 [5], in the data set on LNCaP C4-2 [6], in the data set with LNCaP C4-2 [9] and in the data set with Cell membrane [10] was Active. Besides, the outcome at Tubulin (Homo sapiens) [11] and in the data set on LNCaP C4-2 [12] was Active. Also, the IC50 in the data set with CWR22R was determined as 1.91 µM; with LNCaP C4-2 [1] it was 8.2 µM; with PC-3, 3.51 µM; in the data set with MCF7, 1.7 µM. Moreover, the inhibition result in the data set on LNCaP C4-2 [7] and with LNCaP C4-2 [13] was “Active” each time. Moreover, the Activity on Tubulin (Homo sapiens) [8] stood at 13%. Besides, in data set [2], the IC50 at 48 h is above 40 µM.
For `CS(=O)(=Nc1ccc(F)c(F)c1)c1c[nH]c2ccccc12` (configuration not stated), the IC50 with CWR22R was 40 µM; in the data set with LNCaP C4-2 [1] it was 1.9 µM; in the data set on HEK293, above 40 µM; in the data set with PC-3 it was 14.4 µM; in the data set with MCF7, above 40 µM.
Regarding `COc1ccc(N=S(C)(=O)c2c[nH]c3ccc(OC)cc23)cc1` (configuration not stated), the IC50 is 2.76 µM with CWR22R; 40 µM in the data set with LNCaP C4-2 [1]; above 40 µM in the data set with HEK293; 12.2 µM in the data set with PC-3; above 40 µM in the data set on MCF7.
Take `COc1ccc(C[C@H](N)C(=O)N[C@H]2[C@@H](O)[C@H](n3cnc4c(N(C)C)ncnc43)O[C@@H]2CO)cc1`: the outcome in the data set with Cell membrane [14] was Active.
In the case of `COc1ccc2[nH]cc(S(C)(=O)=Nc3cc(OC)c(OC)c(OC)c3)c2c1` (configuration not stated), the IC50 with CWR22R is 2.68 µM; with LNCaP C4-2 [1], above 40 µM; in the data set with HEK293, above 40 µM; in the data set with PC-3, above 40 µM; in the data set on MCF7, 38.8 µM.
On to `COc1ccc(N=S(C)(=O)c2c[nH]c3ccccc23)cc1` (configuration not stated), for which the IC50 in the data set with CWR22R is 3.31 µM; in the data set on LNCaP C4-2 [1], 1.95 µM; in the data set on HEK293, above 40 µM; in the data set with PC-3, 17.1 µM; in the data set on MCF7 it was above 40 µM.
With `COc1ccc(N=S(C)(=O)c2c[nH]c3ccc(Br)cc23)cc1` (configuration not stated), the IC50 at 48 h in data set [2] was above 40 µM. Also, in the data set on MCF7, the IC50 was 1.28 µM.
Turning to `CS(=O)(=Nc1ccccc1)c1c[nH]c2ccccc12` (configuration not stated), the IC50 is above 40 µM in the data set on CWR22R; 8.9 µM in the data set on LNCaP C4-2 [1]; above 40 µM in the data set with HEK293; above 40 µM in the data set on PC-3; 10 µM with MCF7.
With `CS(=O)(=Nc1ccc(Br)cc1)c1c[nH]c2ccccc12` (configuration not stated), the IC50 in the data set on CWR22R is above 40 µM; in the data set with LNCaP C4-2 [1], above 40 µM; with HEK293 it was above 40 µM; in the data set on PC-3 it was 11.1 µM; in the data set on MCF7, above 40 µM.
Consider `COc1cc(N=S(C)(=O)c2cn(Cc3ccc(Cl)cc3)c3ccccc23)cc(OC)c1OC` (configuration not stated), for which the IC50 with CWR22R is above 40 µM; in the data set with LNCaP C4-2 [1], 40 µM; in the data set with HEK293 it was above 40 µM; in the data set on PC-3, above 40 µM.
